Values of other authors in PMC4875922 (Drugs in R&D, 2016).

Key:
[1] = not given; remark: listed apart in the source

O=C(Nc1cccnn1)N1CCC(=Cc2cccc(Oc3ccc(C(F)(F)F)cn3)c2)CC1 [PF-04457845]
linearity of pharmacokinetics: non-linear pharmacokinetics
tolerability (at doses that cause maximal inhibition of FAAH and elevation of plasma endocannabinoids): well tolerated
effect in phase II study in osteoarthritic pain [1]: without effect
